According to patent US20120244208A1, “COSMETIC SKIN CARE METHODS AND COMPOSITIONS” (priority 2009, published 2012):

Key:
[1] = tested on: Normal human dermal fibroblasts (NHDFs) seeded on collagen type 1 gels; assay: Fibroblast-seeded collagen gel contraction; format: cell-based; details: for % of original size (mean): 0.1 mg/ml lactoferrin, 0.1 mg/ml ICI 118 551, 1.0 mg/ml Isoproterenol, 3.5×10^4 cells per well
Protocol: Normal human dermal fibroblasts (NHDFs) were obtained by tissue donation following circumcision following patient informed consent. The tissue was rinsed in Phosphate Buffered Saline (PBS) and Pen/Strep and Amphotericin B (Pen/strep) at 10 ug/ml. The tissue was then minced to 1 mm2 sections and suspended in Trypsin-EDTA 1:250 at room temperature (RT) for 1 hr. The tissue was then washed twice by centrifugation at 2500 g for 3min in serum supplemented DMEM/F12. A single cell suspension was created using mechanical disaggregation. The cells were counted using a haemocytometer and cultured at 1×10^6 cells per T75 tissue culture flask in DMEM/F12 containing 10% Fetal Bovine Serum (FBS) and 10 ug/ml Pen/strep. Incubators were kept at 37° C. and 5% CO2. Medium was changed every 3-4 days and cells were used from the 4th passage in vitro.
Collagen gels were formed. A solution of collagen, consisting of 2 mg/ml type 1 bovine collagen from bovine Achilles tendon in 0.5M acetic acid, was made. This made up 80% of the gel. Another 10% was made up of 10×PBS and the remaining volume was made up of FBS. The pH of the entire solution was adjusted to 7.4 using NaOH. 400 μl of the solution was placed into each well of a 24 well plate. The gels were set at 37° C. for 1 hr. After ensuring that the gels were set properly, they were detached from the sides of the wells and exposed to 1 ml fully supplemented DMEM/F12 overnight to acclimatize. The complete gels were seeded with 3.5×10^4 cells per well and the test compounds were added at this point. The test compound were added as follows: 0.1 mg/ml lactoferrin, 0.1 mg/ml ICI 118 551, 1.0 mg/ml Isoproterenol. A cell only and no cell control were also incuded.
Photographs were taken from the same distance at 0, 3, 6, 12 and 24 hrs of exposure using a Canon Powershot A640 10MP camera. The photos were transferred to CorelDRAW X3 and the inside diameter of the well as well as the outer edge of the gel were measured using the circle tool. […] These two diameters were then converted to a percentage of the well diameter by the formula geloutside/wellinside×100=gelrelative. This value was then worked out the same way for each gel at every time period. The time period Ohrs taken to be 100% of gel size and each time period after that was compared to it as a relative percentage. The standard deviation was calculated based on the original relative percentage to the well.

NHDFs = assay: Viability monitored visually for 6 days; format: cell-based, human
Protocol: Cytotoxicity was measured using the MTT assay on NHDFs. Human dermal cells were used as it approximates the intended use. No cytotoxicity was found. […] All other cells maintained their viability over the six day period.

fibroblasts = details: concentration of 1 microM; cited from earlier work
[2] = tested on: Normal human dermal fibroblasts (NHDFs) seeded on collagen type 1 gels; assay: Fibroblast-seeded collagen gel contraction; format: cell-based
[3] = 0 hrs (taken to be 100% of gel size)

| Compound | % of original size (mean) [1, 3] [%] | % of original size (mean) ([1]; 3 hrs) [%] | % of original size (mean) ([1]; 6 hrs) [%] | % of original size (mean) ([1]; 12 hrs) [%] | % of original size (mean) ([1]; 24 hrs) [%] | viability monitored visually (NHDFs) | collagen gel contraction by fibroblasts relative to control (fibroblasts) | rate of gel contraction compared with Lactoferrin and cells only controls ([1]; over 24 hrs) | ideal concentration for gel contraction ([2]; dose response 0.01 mg/ml to 0.2 mg/ml, gel containing 3.5×10^4 cells) [mg/mL] | activity at lower concentrations (gel contraction) ([2]; dose response from 0.01 mg/ml, concentrations lower than 0.1 mg/ml) | effect of higher concentrations on rate of contraction ([2]; dose response up to 0.2 mg/ml, concentrations higher than 0.1 mg/ml) | return of gels to original dimensions ([2]; monitored for a further 3 days) |
| --- | --- | --- | --- | --- | --- | --- | --- | --- | --- | --- | --- | --- |
| CC(C)NCC(O)c1ccc(O)c(O)c1 (centres unmarked) [Isoproterenol] | 100 | 100.8622 | 79.6766 | 82.7588 | 83.79 | started to lose viability |  |  |  |  |  |  |
| YTRVVWXA: peptide with the amino acid sequence YTRVVWXA (a fragment from Lactoferrin) |  |  |  |  |  |  | about three times control |  |  |  |  |  |
| Cc1ccc(OCC(O)C(C)NC(C)C)c2c1CCC2 (racemic) [ICI 118 551, erythro-dl-1-(7-methylindan-4-yloxy)-3-isopropylaminobutan-2-ol] | 100 | 66.04 | 53.8 | 51.33 | 51.86 |  |  | contract the gels at a higher rate | 0.1 | not be significantly active | did not seem to increase the rate of contraction significantly | did not return to their original dimensions |
